The text below walks through data of PMC5605198, “MELK is not necessary for the proliferation of basal-like breast cancer cells” (eLife, 2017).

Like-named read-outs stand apart in the source and are kept apart here.

The subject of one assay is Flt3. The arrangement: method as in Johnson et al., 2015. The settings on record: ref Johnson et al., 2015; cited from earlier work.
In the next assay the test system is MDA-MB-468. As to the kind of experiment: Cell proliferation assay (CellTiter-Glo). The settings on record: Homo sapiens.
The subject of another assay is ZR-75-1. As to the kind of experiment: Cell proliferation assay (CellTiter-Glo). The following applies: Homo sapiens, ZR-75-1, 72 h, read-out: 3-day antiproliferative IC50. A general note: Cellular ATP, detected with luciferase, serves as a proxy for viable cell number.
The target of assay [1] is T1, MELK (Homo sapiens, UniProt Q14680). As to the kind of experiment: Inhibitor-induced MELK degradation, immunoblot. The settings on record: MDA-MB-468 cells; pretreatment carfilzomib (400 nM) or MLN4924 (1 μM) 4 hours, then MELK inhibitor 4 hours.
T1 sequence (Q14680 whole entry): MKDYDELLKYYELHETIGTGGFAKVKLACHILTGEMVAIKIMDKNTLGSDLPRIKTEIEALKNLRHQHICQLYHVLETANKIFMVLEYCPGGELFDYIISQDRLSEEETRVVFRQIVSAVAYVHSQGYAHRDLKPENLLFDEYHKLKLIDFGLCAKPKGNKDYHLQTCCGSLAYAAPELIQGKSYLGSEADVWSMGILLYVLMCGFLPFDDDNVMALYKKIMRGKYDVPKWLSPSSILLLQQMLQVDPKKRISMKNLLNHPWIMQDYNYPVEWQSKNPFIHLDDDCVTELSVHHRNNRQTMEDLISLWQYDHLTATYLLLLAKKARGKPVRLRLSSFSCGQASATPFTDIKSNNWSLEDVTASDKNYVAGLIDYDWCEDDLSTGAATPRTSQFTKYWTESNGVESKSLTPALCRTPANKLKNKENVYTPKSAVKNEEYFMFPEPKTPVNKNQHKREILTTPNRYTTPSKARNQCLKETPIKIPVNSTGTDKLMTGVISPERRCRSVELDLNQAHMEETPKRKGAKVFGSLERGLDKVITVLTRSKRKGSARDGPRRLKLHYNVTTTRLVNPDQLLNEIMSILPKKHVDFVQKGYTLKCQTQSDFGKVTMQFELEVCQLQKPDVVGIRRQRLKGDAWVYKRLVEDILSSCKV
In the next assay the test system is MCF7. In words: Cell proliferation assay (CellTiter-Glo). The settings on record: Homo sapiens.
The subject of the next assay is HCC70. As to the kind of experiment: Cell proliferation assay (CellTiter-Glo). The settings on record: Homo sapiens.
Assay [2] concerns MDA-MB-468 (second source). As to the kind of experiment: Cell proliferation assay (CellTiter-Glo). The following applies: Homo sapiens, MDA-MB-468, 168 h, read-out: 7-day antiproliferative IC50.
Another assay has as its system BT-549. In words: Cell proliferation assay (CellTiter-Glo). The following applies: Homo sapiens.
For another assay, the system named is T-47D. As to the kind of experiment: Cell proliferation assay (CellTiter-Glo). The settings on record: Homo sapiens, T47D.
In assay [3] the target is T1, MELK. As to the kind of experiment: Z’-LYTE enzymatic assay. The assay is classed as biochemical.
A further assay has as its system FKBP12^F36V-MELK(sg3R). In words: dTAG-induced degradation, immunoblot. The assay is classed as cell-based. The settings on record: MELK−/− MDA-MB-468-FKBP12^F36V-MELK(sg3R) cells; for duration of sustained degradation of FKBP12^F36V-MELK(sg3R): 500 nM. The protocol:
(§1) Four dTAG molecules (7, 13, 36 and 47) that vary in linker length and chemical structure were tested for their efficiency at depleting FKBP12^F36V-MELK(sg3R) (Figure 4A, Figure 4—figure supplement 3).
Figure 4. […] (A) Chemical structure of heterobifunctional dTAG molecule dTAG-47. See also Figure 4—figure supplement 3 for the chemical structures of dTAG-7, dTAG-13 and dTAG-36. (B) Immunoblots for MELK and GAPDH after treatment of dTAG-7, 13, 36, and 47 at indicated concentrations in MELK−/− MDA-MB-468-FKBP12^F36V-MELK(sg3R) cells for 4 hours. See Figure 4—figure supplement 1 for details of the generation of MELK−/− MDA-MB-468-FKBP12^F36V-MELK(sg3R) clones. (C) Same as in 4B, but with treatment at 500 nM and extended treatment times for 14, 24, 48, and 72 hours. (D) Changes in abundance of 7270 proteins (peptide count ≥2) comparing MELK−/− MDA-MB-468-FKBP12^F36V-MELK cells treated with dTAG-7 (250 nM) or DMSO for 1 hour, versus p-value (dTAG-7: triplicate, DMSO: duplicate, limma moderated t-test). See also Figure 4—source datas 1 and 2 for the original and the processed data. (E) Crystal violet staining image showing parental MDA-MB-468 cells and MELK−/− MDA-MB-468-FKBP12^F36V-MELK(sg3R) cells after treatment with DMSO or 500 nM of dTAG-47 for 9 days. Immunoblots showing MELK and GAPDH from a duplicate plate on Day 9 confirmed sustained depletion of FKBP12^F36V-MELK(sg3R). These are representative data from one of two independent experiments. Figure 4—source data 1. Raw integrated ion intensities from quantitative multiplexed proteomics. Figure 4—source data 2. Processed Data and Statistical Analysis by limma (topTable). Figure 4—figure supplement 1. Single clones selected from MDA-MB-468-FKBP12^F36V-MELK(sg3R) cells subject to CRISPR/Cas9-mediated knockout of endogenous MELK. Immunoblots for MELK and GAPDH in single cell clones selected from MDA-MB-468-FKBP12^F36V-MELK(sg3R) transfected with Cas9/sgMELK-3 to knockout endogenous MELK. Clone 1D4 is clone 1 and clone 1A3 is clone 2 in Figure 4. Clone 1D4 was confirmed with heterozygous −1 and +1 indels; clone 1A3 was confirmed with homozygous −1 deletions. [drawing 5] Figure 4—figure supplement 2. […] (A) Immunoblots for MELK, cyclin B1 and GAPDH in asynchronous versus M-phase arrested MDA-MB-468 cells and MDA-MB-468-FKBP12^F36V-MELK(sg3R) cells (clone 1). […] Chemical structures of dTAG molecules. FKBP12^F36V-binding ligands conjugated by variable linkers to thalidomide or pomalidomide, including (A) dTAG-7, (B) dTAG-13 and (C) dTAG-36 are capable of inducing degradation of FKBP12^F36V-tagged proteins of interest. [drawing 7]
Background: A western blot detects proteins with antibodies after separation by electrophoresis.

Assay [4] relates to MELK−/− MDA-MB-468-FKBP12^F36V-MELK(sg3R) cells. As to the kind of experiment: 9-day proliferation assay, crystal violet staining. The class given is cell-based. The settings on record: 500 nM, 9 days, two clones. Here is the method:
as §1
Figure 4. […] (A) Chemical structure of heterobifunctional dTAG molecule dTAG-47. See also Figure 4—figure supplement 3 for the chemical structures of dTAG-7, dTAG-13 and dTAG-36. (B) Immunoblots for MELK and GAPDH after treatment of dTAG-7, 13, 36, and 47 at indicated concentrations in MELK−/− MDA-MB-468-FKBP12^F36V-MELK(sg3R) cells for 4 hours. See Figure 4—figure supplement 1 for details of the generation of MELK−/− MDA-MB-468-FKBP12^F36V-MELK(sg3R) clones. (C) Same as in 4B, but with treatment at 500 nM and extended treatment times for 14, 24, 48, and 72 hours. (D) Changes in abundance of 7270 proteins (peptide count ≥2) comparing MELK−/− MDA-MB-468-FKBP12^F36V-MELK cells treated with dTAG-7 (250 nM) or DMSO for 1 hour, versus p-value (dTAG-7: triplicate, DMSO: duplicate, limma moderated t-test). See also Figure 4—source datas 1 and 2 for the original and the processed data. (E) Crystal violet staining image showing parental MDA-MB-468 cells and MELK−/− MDA-MB-468-FKBP12^F36V-MELK(sg3R) cells after treatment with DMSO or 500 nM of dTAG-47 for 9 days. […] Raw integrated ion intensities from quantitative multiplexed proteomics. […]

The mark [5] stands for this setting: MDA-MB-468, 72 h, read-out: 3-day antiproliferative IC50.
Setting [6] is: MDA-MB-468, 168 h, read-out: 7-day antiproliferative IC50.
Setting [7] is: MCF7, 72 h, read-out: 3-day antiproliferative IC50.
[8] abbreviates: HCC70, 72 h, read-out: 3-day antiproliferative IC50.
Where [9] appears, read: HCC70, 168 h, read-out: 7-day antiproliferative IC50.
Setting [10] is: BT-549, 72 h, read-out: 3-day antiproliferative IC50.
The mark [11] stands for this setting: BT-549, 168 h, read-out: 7-day antiproliferative IC50.
Where [12] appears, read: 72 h, read-out: 3-day antiproliferative IC50.
Where [13] appears, read: 168 h, read-out: 7-day antiproliferative IC50.

In general, IC50 refers to the concentration that inhibits the measured activity by half. With `COc1cc(-c2cn[nH]c2)ccc1C(=O)Nc1ccc2c(c1)CCNCC2` [MELK-T1], the IC50 in the assay with Flt3 was 0.018 µM; with MDA-MB-468 (setting [5]) it was more than 10 µM; with ZR-75-1 it was more than 10 µM.
Regarding `NS(=O)(=O)OC[C@@H]1C[C@@H](n2ccc3c(N[C@H]4CCc5ccccc54)ncnc32)C[C@@H]1O` [MLN4924], the “rescue of inhibitor-induced MELK degradation by pretreatment” value on MELK [1] was “minimal effect”.
With `CC1(C)C(=O)N([C@H]2CCc3c(O)cccc32)c2nc(Nc3cccc(CN4CCCC4)c3)ncc21` [MRT199665], the IC50 with MDA-MB-468 (setting [5]) was found to be 0.58 µM; in the assay with MDA-MB-468 (setting [6]), 0.16 µM; in the assay with MCF7 (setting [7]) it was 0.44 µM; in the assay with HCC70 (setting [8]) it was 0.39 µM; with HCC70 (setting [9]) it was 0.075 µM; in assay [2], 0.91 µM. Besides, the IC50 was 0.4 µM in the assay on BT-549 (setting [10]); 0.31 µM with BT-549 (setting [11]); 4.83 µM with ZR-75-1; 5.89 µM in the assay on T-47D (setting [12]); 0.62 µM in the assay on T-47D (setting [13]).
Take `CN1CCN(c2ccc(-n3cc(-c4ccncc4OCC4CCNCC4)cn3)cc2)CC1` [NVS-MELK8a]: the IC50 was determined as 5.41 µM in the assay with MDA-MB-468 (setting [5]); 2.96 µM with MDA-MB-468 (setting [6]); 6.06 µM in the assay with MCF7 (setting [7]); 2.81 µM in the assay with MCF7 (MCF7, 168 h, read-out: 7-day antiproliferative IC50); 5.99 µM in the assay on HCC70 (setting [8]); 4.17 µM in the assay with HCC70 (setting [9]). For the same compound, the IC50 was 0.0119 µM on MELK [3] (Biochemical IC50 MELK, Z’-LYTE assay at [ATP]=apparent Km); 0.0119 µM against MELK [3] (Note: MELK IC50, note column of Table 3); less than 0.02 µM against MELK [3] (Potency (MELK), measured by Z’LYTE biochemical assay, class symbols in Figure 2C); 8.4 µM in [2]; 8.05 µM in the assay on BT-549 (setting [10]); 4.98 µM with BT-549 (setting [11]). In addition, the IC50 in the assay with ZR-75-1 was more than 10 µM; with T-47D (setting [12]), more than 10 µM; with T-47D (setting [13]) it was 4.9 µM.
`CC(C)C[C@H](NC(=O)[C@H](CCc1ccccc1)NC(=O)CN1CCOCC1)C(=O)N[C@@H](Cc1ccccc1)C(=O)N[C@@H](CC(C)C)C(=O)[C@@]1(C)CO1` [carfilzomib]: on MELK [1], the “rescue of inhibitor-induced MELK degradation by pretreatment” value is on record as “prevented degradation”.
As to `CCC(C(=O)N1CCCCC1C(=O)OC(CCc1ccc(OC)c(OC)c1)c1ccccc1OCC(=O)NCCCCCCOc1cccc2c1C(=O)N(C1CCC(=O)NC1=O)C2=O)c1cc(OC)c(OC)c(OC)c1` (centres unmarked) [dTAG-13], in the assay on FKBP12^F36V-MELK(sg3R), the “duration of sustained degradation of FKBP12^F36V-MELK(sg3R)” value was “up to 72 hours” and the “time to efficient depletion of FKBP12^F36V-MELK(sg3R)” value is not above 4 h.
For `CC[C@H](C(=O)N1CCCC[C@H]1C(=O)O[C@H](CCc1ccc(OC)c(OC)c1)c1ccccc1OCC(=O)NCCCCCCCCNc1cccc2c1C(=O)N(C1CCC(=O)NC1=O)C2=O)c1cc(OC)c(OC)c(OC)c1` (stereo partly drawn) [dTAG-36, (2S)-(1R)−3-(3,4-dimethoxyphenyl)−1-(2-(2-((8-((2-(2,6-dioxopiperidin-3-yl)−1,3-dioxoisoindolin-4-yl)amino)octyl)amino)−2-oxoethoxy)phenyl)propyl 1-((S)−2-(3,4,5-trimethoxyphenyl)butanoyl)piperidine-2-carboxylate] the same measures were “up to 72 hours” and not above 4 h.
`CC[C@H](C(=O)N1CCCC[C@H]1C(=O)O[C@H](CCc1ccc(OC)c(OC)c1)c1ccccc1OCC(=O)NCCCCCCCCNc1ccc2c(c1)C(=O)N(C1CCC(=O)NC1=O)C2=O)c1cc(OC)c(OC)c(OC)c1` (stereo partly drawn) [dTAG-47, (2S)-(1R)−3-(3,4-dimethoxyphenyl)−1-(2-(2-((8-((2-(2,6-dioxopiperidin-3-yl)−1,3-dioxoisoindolin-5-yl)amino)octyl)amino)−2-oxoethoxy)phenyl)propyl 1-((S)−2-(3,4,5-trimethoxyphenyl)butanoyl)piperidine-2-carboxylate]: in the assay on FKBP12^F36V-MELK(sg3R), the “duration of sustained degradation of FKBP12^F36V-MELK(sg3R)” value is reported as “up to 72 hours” and the “time to efficient depletion of FKBP12^F36V-MELK(sg3R)” value is not above 4 h. In assay [4], the “growth in 9-day proliferation assay” value is “neither of the FKBP12^F36V-MELK(sg3R) MELK−/− clones exhibited growth impairment”.
